The source of these data is ChEMBL document CHEMBL4680278 (J Med Chem, 2020).

In series [1] the target is T1, 5-hydroxytryptamine receptor 1A (Homo sapiens, UniProt P08908).
T1 sequence (P08908 whole entry): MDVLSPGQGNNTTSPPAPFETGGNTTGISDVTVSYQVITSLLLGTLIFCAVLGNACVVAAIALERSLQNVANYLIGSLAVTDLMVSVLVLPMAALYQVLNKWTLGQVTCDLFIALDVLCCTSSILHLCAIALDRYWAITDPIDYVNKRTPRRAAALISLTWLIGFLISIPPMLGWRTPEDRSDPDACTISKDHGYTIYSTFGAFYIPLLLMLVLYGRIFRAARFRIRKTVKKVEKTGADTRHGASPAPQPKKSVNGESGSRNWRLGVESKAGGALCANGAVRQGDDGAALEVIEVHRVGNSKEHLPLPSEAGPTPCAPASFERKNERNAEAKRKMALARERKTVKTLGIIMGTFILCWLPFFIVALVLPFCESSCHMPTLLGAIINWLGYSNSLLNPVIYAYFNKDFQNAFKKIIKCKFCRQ
Description: Displacement of [3H]8-OH-DPAT from human 5-HT1a receptor expressed in CHO cells incubated for 30 mins by liquid scintillation counting method. In general terms: In a radioligand displacement assay an active substance lowers the binding of a labelled ligand.

The target in series [2] is Delta-type opioid receptor (Homo sapiens, UniProt P41143). Briefly: Inhibition of delta-type opioid receptor receptor (unknown origin).
Series [3] in a line: Critical aggregation concentration of compound by dynamic light scattering. The series is classed as physicochemical.
Series [4] is described as follows: Protein binding in human plasma incubated for 20 to 24 hrs. The series is classed as ADME, cell-free. The following applies: time 20-24 hrs, read-out: PPB (converted).
The nature of series [5]: Cmax in human plasma at 14+/- 15 mg, po. In kind it is ADME, cell-free. Further details: route oral, dose 14 mg. To be noted: 14 mg.
Series [6] in a line: Bioavailability in dog at 180 mg. The following applies: in vivo. In kind it is ADME, organism-based, Canis lupus familiaris.
Series [7] in a line: Maximum drug concentration in Swiss mouse brain at 120 mg/kg, po measured up to 24 hrs by HPLC analysis. In kind it is ADME, organism-based. Also on record: route oral, dose 120 mg/kg, time <=24.
A short description of series [8]: Cmax in mouse brain at 10 mg/kg, sc measured after 1 to 3 hrs by HPLC analysis. In kind it is ADME, organism-based. Further details: route subcutaneous, time lower 1 hrs, dose 10 mg/kg, time upper 3 hrs.
The nature of series [9]: Elimination half-life in human at 10 mg using oromucosal-spray formulation measured upto 24 hrs by LC-MS/MS assay. The series is classed as ADME. The following applies: in vivo, read-out: beta t1/2 (converted).
Series [10] has as its target T2, Cytochrome P450 1A1 (Homo sapiens, UniProt P04798).
T2 sequence (P04798 whole entry): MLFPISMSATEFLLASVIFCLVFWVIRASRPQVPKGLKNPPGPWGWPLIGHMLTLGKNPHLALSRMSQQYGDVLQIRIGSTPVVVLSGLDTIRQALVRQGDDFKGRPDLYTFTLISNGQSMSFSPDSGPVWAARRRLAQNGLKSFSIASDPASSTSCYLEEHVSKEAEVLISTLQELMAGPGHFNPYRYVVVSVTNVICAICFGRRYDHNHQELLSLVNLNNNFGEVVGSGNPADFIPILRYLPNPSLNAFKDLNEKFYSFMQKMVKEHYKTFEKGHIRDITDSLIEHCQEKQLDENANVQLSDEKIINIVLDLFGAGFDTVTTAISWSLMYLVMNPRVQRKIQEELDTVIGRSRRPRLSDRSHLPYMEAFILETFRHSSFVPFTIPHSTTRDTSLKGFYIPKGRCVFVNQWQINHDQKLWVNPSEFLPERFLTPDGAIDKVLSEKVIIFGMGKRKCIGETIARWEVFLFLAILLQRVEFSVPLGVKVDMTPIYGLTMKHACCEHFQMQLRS
Description: Competitive inhibition of human recombinant CYP1A1 using 7-Ethoxyresorufin as substrate by Lineweaver-Burk plot analysis. The series is classed as ADME. The following applies: read-out: Ki(app).

Series [11] in a line: Half-life in human at 10 mg/kg, po BID administered for 6 weeks measured weekly for 15 weeks by GC/MS analysis. The series is classed as ADME, organism-based. To be noted: in vivo.
Series [12] can be described thus: Apparent oral clearance in human at 5 to 20 mg using oromucosal-spray formulation by GC-MS analysis. The series is classed as ADME. The following applies: in vivo, dose 5-20 mg.
The nature of series [13]: Apparent oral clearance in human in fed state at 5 to 20 mg using oromucosal-spray formulation cotreated with THC by GC-MS analysis. The series is classed as ADME. To be noted: in vivo, dose 5-20 mg.
Series [14] in a line: Elimination rate constant in human using oromucosal-spray measured for 6 weeks.
The test system of series [15] is Homo sapiens. Briefly: Anti-seizure activity in Lennox-Gastaut patient assessed as median percent reduction in seizure frequency at 20 mg/kg administered daily for 14 weeks (reference value: 17%). In kind it is functional. Further details: scale not given: the % may be the effect or the level left.

The structures appear in SMILES notation.

Chain of Delta-type opioid receptor (P41143 whole entry): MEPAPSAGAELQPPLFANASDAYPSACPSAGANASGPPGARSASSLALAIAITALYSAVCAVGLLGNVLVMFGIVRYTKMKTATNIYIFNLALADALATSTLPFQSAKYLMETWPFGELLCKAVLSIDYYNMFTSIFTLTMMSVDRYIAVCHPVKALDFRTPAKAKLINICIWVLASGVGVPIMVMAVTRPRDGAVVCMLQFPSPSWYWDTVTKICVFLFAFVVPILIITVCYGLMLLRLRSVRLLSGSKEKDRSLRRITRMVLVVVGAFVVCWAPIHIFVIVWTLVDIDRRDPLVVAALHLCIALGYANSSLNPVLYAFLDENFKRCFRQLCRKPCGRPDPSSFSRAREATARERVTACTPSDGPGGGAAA

What is called EC50 is the concentration at which the effect is half-maximal. For orientation: Cmax means the maximum level reached in the sampled fluid or tissue. In general, bioavailability refers to dose-corrected exposure relative to a reference, in per cent. A word on the CL/F: it is clearance divided by bioavailability, as obtained after extravascular dosing. With `C=C(C)[C@@H]1CCC(C)=C[C@H]1c1c(O)cc(CCCCC)cc1O` [CANNABIDIOL], in series [1], the EC50 was 8 µM. Besides, the Ki in series [2] is 6.4 µM; in series [10] it was 0.16 µM. In series [3], this compound displayed a CAC of 12.5 µM. The fraction unbound in series [4] is 0.1. For the same compound, the values for the Cmax in series [5], in series [7] and in [8] were 0.9 nM, 4000 nM and 1000 nM, respectively. This compound showed a bioavailability in series [6] of 13%. The results for the half-life in [9] and in series [11] were 2 h and 48 h, respectively. Besides, the results for the CL/F in series [12] and in series [13] were 41700 mL/min and 8880 mL/min, respectively. In series [14], the k el at 1008 h is 3.33e-05 s⁻¹. Besides, in series [15], the Activity was 42%.
